Source: patent publication US20240350647A1, “STING SENSITIZING AGENTS” (STipe Therapeutics ApS, priority 2023, published 2024)
Where a SMILES comes first, the peptide text is derived from it. Bridges are numbered along the chain shown (N, C = ends). [ ]: non-standard residue; d: D form. The star is where a group is joined. C16 diacid = O=C(O)CCCCCCCCCCCCCCC(=O)*; AEEA = NCCOCCOCC(=O)O

How the values were obtained:
[1] = Pharmacokinetics after intravenous bolus, rat; type: in vivo; settings: 10 mg/kg bolus IV
Experimental: (§1) Test agents were formulated in 2% (v/v) propylene glycol in 25 mM HEPES, pH 7.4 and administered with a bolus injection at 10.0 mg/kg via the tail vain to male CD-1 mice (Charles River Laboratories) or male Wistar rats (Charles River Laboratories), or with a 30-min intravenous infusion at 4 mg/kg to male cynomolgus monkeys.
Blood samples were collected at 2.5, 5, 10, 30, 60, 120, 240 and 480 minutes after administration (mouse and rat), or at 5, 15, 30, 60, 120, 240, 360, 480 and 1440 min (Agent 1) or at 5, 15, 30, 45, 60, 90, 150, 240 and 480 min (Agent 2) after the start of infusion in monkeys. Samples were immediately mixed with a protease inhibitor cocktail (Roche cOmplete™ EDTA-free) before being cooled and centrifuged for plasma separation. Plasma samples were frozen and stored at −20° C. until analysis.
To rat samples, blank rat plasma was added up to a volume of 100 μl. […]
Mouse and rat samples: Separation was done with a C18 column (Phenomenex Kinetex XB—C18 (100×2.1 mm, 1.7 μm)), using a gradient between 1% formic acid in water and 2% DMSO in acetonitrile (Agent 1) or acetonitrile (Agent 2). […] The range of quantitation was 4-20,000 ng/mL.
(§2) Non-compartmental PK analysis on plasma concentration versus time data was analyzed by non-compartmental approaches using the WinNonlin software program (version 6.3 or above, Pharsight, Mountain View, CA). […]

[2] = Pharmacokinetics after 30-min intravenous infusion, cynomolgus monkey; type: in vivo; settings: 4 mg/kg 30 min IV infusion
Experimental: as §1
Blood samples were collected at 2.5, 5, 10, 30, 60, 120, 240 and 480 minutes after administration (mouse and rat), or at 5, 15, 30, 60, 120, 240, 360, 480 and 1440 min (Agent 1) or at 5, 15, 30, 45, 60, 90, 150, 240 and 480 min (Agent 2) after the start of infusion in monkeys. […]
Monkey samples, Agent 1: Separation was done with a C18 column (Waters Acquity UPLC BEH C18 (50×2.1 mm, 1.7 μm)), using a gradient between 0.1% formic acid in water and 0.1% formic acid in acetonitrile. […] The range of quantitation was 10-3,000 ng/mL.
Monkey samples, Agent 2: Separation was done with a C18 column (Waters Acquity CSH C18 (50×2.1 mm, 1.7 μm)), using a gradient between 0.2% formic acid in acetonitrile and 0.2% formic acid in water. […] The range of quantitation was 10-10,000 ng/mL.
as §2

For CC[C@H](C)[C@H](NC(=O)[C@H](CC(N)=O)NC(=O)[C@H](CCCCN)NC(=O)[C@H](C)NC(=O)[C@H](CCCCN)NC(=O)[C@H](CCCCN)NC(=O)COCCOCCNC(=O)COCCOCCNC(=O)CCCCCCCCCCCCCCC(=O)O)C(=O)N[C@H](C(=O)N[C@@H](CC(C)C)C(=O)N[C@@H](CC(C)C)C(=O)N[C@@H](CCCCN)C(=O)NCC(=O)N[C@@H](CC(C)C)C(=O)N[C@@H](CCC(=O)O)C(=O)N[C@H](C(=O)N[C@H](C(=O)N[C@@H](CC(N)=O)C(=O)N[C@@H](CC(=O)O)C(=O)N[C@@H](Cc1c[nH]c2ccccc12)C(=O)N[C@@H](Cc1c[nH]cn1)C(=O)N[C@@H](Cc1ccccc1)C(=O)N[C@H]1CSSC[C@@H](C(N)=O)NC(=O)[C@@H](CCCNC(=N)N)NC(=O)[C@H](CCCNC(=N)N)NC(=O)[C@@H](CCCCN)NC(=O)[C@H](CCCCN)NC(=O)[C@@H](CCCNC(=N)N)NC(=O)CNC(=O)[C@@H](CCCNC(=N)N)NC(=O)[C@H](CCCNC(=N)N)NC(=O)[C@@H](CCCNC(=N)N)NC1=O)[C@@H](C)CC)C(C)C)C(C)C [Agent 1] ({C16 diacid-AEEA-AEEA}-KKAKNIVLLKGLEVINDWHFC[dR]R[dR]G[dR]K[dK]R[dR]C-NH2; disulfide 21-31), the “increase in exposure (AUC0-inf) compared to Agent 2, at equal dose” value [1] was about 27 fold and the “increase in exposure (AUC0-inf) compared to Agent 2, at equal dose” value [2] was about 13 fold.
